Results reported in patent publication US11524968B2, “Heterocyclic compound as a protein kinase inhibitor” (HK inno.N Corporation, priority 2017, dated 2022).

Molecular target: JAK1 (Homo sapiens (Human), UniProt P23458)
Test: Analysis of JAK1 activity inhibition ability (ADP-Glo Kinase Assay)
Type: biochemical
Conditions: JAK1 enzyme, ADP-Glo luminescence, ATP 250 uM, IRS-itide substrate, 30° C. 40 minutes; read-out: IC50
Method in brief: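 ADP-Glo luminescence read-out of ADP production, with IC50 taken as the concentration halving JAK1 activity relative to control. Enzyme was incubated 40 min at 30 °C with compound, IRS-itide (40 ng/mL) and ATP (250 uM), concentrations as prepared in pH 7.5 Tris-HCl/MgCl2/BSA/DTT buffer.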

Chain of JAK1 (P23458 whole entry): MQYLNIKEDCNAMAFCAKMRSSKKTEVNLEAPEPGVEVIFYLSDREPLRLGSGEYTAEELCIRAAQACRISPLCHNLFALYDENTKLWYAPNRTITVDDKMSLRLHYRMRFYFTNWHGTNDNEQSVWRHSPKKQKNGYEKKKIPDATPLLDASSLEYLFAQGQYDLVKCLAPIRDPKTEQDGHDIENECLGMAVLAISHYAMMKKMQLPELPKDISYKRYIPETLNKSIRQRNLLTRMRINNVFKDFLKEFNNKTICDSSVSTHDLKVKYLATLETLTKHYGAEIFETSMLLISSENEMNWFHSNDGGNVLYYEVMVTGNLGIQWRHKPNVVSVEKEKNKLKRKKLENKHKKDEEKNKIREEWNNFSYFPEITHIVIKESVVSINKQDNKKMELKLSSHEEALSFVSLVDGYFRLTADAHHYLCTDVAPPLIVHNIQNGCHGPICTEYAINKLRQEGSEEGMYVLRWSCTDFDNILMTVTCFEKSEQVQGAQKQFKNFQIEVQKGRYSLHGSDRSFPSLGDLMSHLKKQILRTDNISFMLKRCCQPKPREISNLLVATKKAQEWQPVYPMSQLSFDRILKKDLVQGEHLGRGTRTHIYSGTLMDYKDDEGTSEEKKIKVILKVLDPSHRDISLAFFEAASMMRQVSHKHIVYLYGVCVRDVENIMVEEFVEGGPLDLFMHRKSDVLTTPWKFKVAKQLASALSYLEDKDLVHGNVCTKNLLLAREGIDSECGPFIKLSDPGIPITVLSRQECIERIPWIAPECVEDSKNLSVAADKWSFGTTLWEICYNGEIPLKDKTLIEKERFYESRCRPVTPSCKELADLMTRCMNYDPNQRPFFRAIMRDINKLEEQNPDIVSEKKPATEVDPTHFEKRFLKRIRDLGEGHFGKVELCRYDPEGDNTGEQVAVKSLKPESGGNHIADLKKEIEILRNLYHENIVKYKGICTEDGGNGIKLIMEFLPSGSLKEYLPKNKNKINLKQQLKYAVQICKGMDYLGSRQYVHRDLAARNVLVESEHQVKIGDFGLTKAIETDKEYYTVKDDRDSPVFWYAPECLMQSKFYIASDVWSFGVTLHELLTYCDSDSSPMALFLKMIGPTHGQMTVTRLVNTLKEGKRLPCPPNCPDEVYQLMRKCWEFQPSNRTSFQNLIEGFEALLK

| IC50 | Compound |
| --- | --- |
| 20 to 200 nM | CCS(=O)(=O)Nc1ccc(-c2cc(NC(=O)C3CC3)nc3[nH]cc(C)c23)cc1 [Example 93, N-(4-(4-(ethylsulfonamido)phenyl)-3-methyl-1H-pyrrolo[2,3-b]pyridin-6-yl)cyclopropanecarboxamide] |
| 20 to 200 nM | CCCS(=O)(=O)Nc1ccc(-c2cc(NC(=O)C3CC3)nc3[nH]ccc23)c(C)c1 [Example 95, N-(4-(2-methyl-4-(propylsulfonamido)phenyl)-1H-pyrrolo[2,3-b]pyridin-6-yl)cyclopropanecarboxamide] |
| 20 to 200 nM | CCS(=O)(=O)Nc1ccc(-c2cc(NC(=O)C3CC3)[n+]([O-])c3[nH]ccc23)cc1F [Example 97, 6-(cyclopropanecarboxamido)-4-(4-(ethylsulfonamido)-3-fluorophenyl)-1H-pyrrolo[2,3-b]pyridine 7-oxide] |
| 20 to 200 nM | CCS(=O)(=O)Nc1ccc(-c2cc(NC(=O)C3CC3)nc3[nH]ccc23)cc1C(F)(F)F [Example 98, N-(4-(4-(ethylsulfonamido)-3-(trifluoromethyl)phenyl)-1H-pyrrolo[2,3-b]pyridin-6-yl)cyclopropanecarboxamide] |
| < 20 nM | CCc1cc(NS(=O)(=O)CC)ccc1-c1cc(NC(=O)C2CC2)nc2[nH]ccc12 [Example 99, N-(4-(2-ethyl-4-(ethylsulfonamido)phenyl)-1H-pyrrolo[2,3-b]pyridin-6-yl)cyclopropanecarboxamide] |
| 20 to 200 nM | CCCS(=O)(=O)Nc1ccc(-c2cc(NC(=O)C3CC3)nc3[nH]ccc23)c(C)c1F [Example 100, N-(4-(3-fluoro-2-methyl-4-(propylsulfonamido)phenyl)-1H-pyrrolo[2,3-b]pyridin-6-yl)cyclopropanecarboxamide] |
| 20 to 200 nM | CCS(=O)(=O)Nc1ccc(-c2cc(NC(=O)C3CC3)nc3[nH]ccc23)c(C)c1F [Example 101, N-(4-(4-(ethylsulfonamido)-3-fluoro-2-methylphenyl)-1H-pyrrolo[2,3-b]pyridin-6-yl)cyclopropanecarboxamide] |
| 20 to 200 nM | N#CCCCS(=O)(=O)Nc1cc(F)c(-c2cc(NC(=O)C3CC3)nc3[nH]ccc23)cc1F [Example 104, N-(4-(4-((3-cyanopropyl)sulfonamido)-2,5-difluorophenyl)-1H-pyrrolo[2,3-b]pyridin-6-yl)cyclopropanecarboxamide] |
| < 20 nM | CCc1cc(NS(=O)(=O)C2CC2)ccc1-c1cc(NC(=O)C2CC2)nc2[nH]ccc12 [Example 113, N-(4-(4-(cyclopropanesulfonamido)-2-ethylphenyl)-1H-pyrrolo[2,3-b]pyridin-6-yl)cyclopropanecarboxamide] |
| < 20 nM | CCCS(=O)(=O)Nc1ccc(-c2cc(NC(=O)C3CC3)nc3[nH]ccc23)c(CC)c1 [Example 115, N-(4-(2-ethyl-4-(propylsulfonamido)phenyl)-1H-pyrrolo[2,3-b]pyridin-6-yl)cyclopropanecarboxamide] |

The remaining lines, values behind:

| Compound | IC50 |
| --- | --- |
| Cc1cc(NS(=O)(=O)CC2CC2)ccc1-c1cc(NC(=O)C2CC2)nc2[nH]ccc12 [Example 92, N-(4-(4-((cyclopropylmethyl)sulfonamido)-2-methylphenyl)-1H-pyrrolo[2,3-b]pyridin-6-yl)cyclopropanecarboxamide] | 20 to 200 nM |
| CCCS(=O)(=O)Nc1ccc(-c2cc(NC(=O)C3CC3)nc3[nH]cc(C)c23)cc1 [Example 94, N-(3-methyl-4-(4-(propylsulfonamido)phenyl)-1H-pyrrolo[2,3-b]pyridin-6-yl)cyclopropanecarboxamide] | 20 to 200 nM |
| Cc1cc(NS(=O)(=O)CCCC#N)ccc1-c1cc(NC(=O)C2CC2)nc2[nH]ccc12 [Example 96, N-(4-(4-((3-cyanopropyl)sulfonamido)-2-methylphenyl)-1H-pyrrolo[2,3-b]pyridin-6-yl)cyclopropanecarboxamide] | 20 to 200 nM |
| Cc1cc(NS(=O)(=O)CC2(C#N)CC2)ccc1-c1cc(NC(=O)C2CC2)nc2[nH]ccc12 [Example 102, N-(4-(4-(((1-cyanocyclopropyl)methyl)sulfonamido)-2-methylphenyl)-1H-pyrrolo[2,3-b]pyridin-6-yl)cyclopropanecarboxamide] | < 20 nM |
| Cc1cc(NS(=O)(=O)CC2(CC#N)CC2)ccc1-c1cc(NC(=O)C2CC2)nc2[nH]ccc12 [Example 103, N-(4-(4-(((1-(cyanomethyl)cyclopropyl)methyl)sulfonamido)-2-methylphenyl)-1H-pyrrolo[2,3-b]pyridin-6-yl)cyclopropanecarboxamide] | < 20 nM |
| N#CC1(CS(=O)(=O)Nc2cc(F)c(-c3cc(NC(=O)C4CC4)nc4[nH]ccc34)cc2F)CC1 [Example 105, N-(4-(4-(((1-cyanocyclopropyl)methyl)sulfonamido)-2,5-difluorophenyl)-1H-pyrrolo[2,3-b]pyridin-6-yl)cyclopropanecarboxamide] | < 20 nM |
| N#CCC1(CS(=O)(=O)Nc2cc(F)c(-c3cc(NC(=O)C4CC4)nc4[nH]ccc34)cc2F)CC1 [Example 106, N-(4-(4-(((1-(cyanomethyl)cyclopropyl)methyl)sulfonamido)-2,5-difluorophenyl)-1H-pyrrolo[2,3-b]pyridin-6-yl)cyclopropanecarboxamide] | < 20 nM |
| N#CC1(CS(=O)(=O)Nc2c(F)cc(-c3cc(NC(=O)C4CC4)nc4[nH]ccc34)cc2F)CC1 [Example 107, N-(4-(4-(((1-cyanocyclopropyl)methyl)sulfonamido)-3,5-difluorophenyl)-1H-pyrrolo[2,3-b]pyridin-6-yl)cyclopropanecarboxamide] | 20 to 200 nM |
| N#CCC1(CS(=O)(=O)Nc2c(F)cc(-c3cc(NC(=O)C4CC4)nc4[nH]ccc34)cc2F)CC1 [Example 108, N-(4-(4-(((1-(cyanomethyl)cyclopropyl)methyl)sulfonamido)-3,5-difluorophenyl)-1H-pyrrolo[2,3-b]pyridin-6-yl)cyclopropanecarboxamide] | < 20 nM |
| CCc1cc(NS(=O)(=O)CC2(C#N)CC2)ccc1-c1cc(NC(=O)C2CC2)nc2[nH]ccc12 [Example 109, N-(4-(4-(((1-cyanocyclopropyl)methyl)sulfonamido)-2-ethylphenyl)-1H-pyrrolo[2,3-b]pyridin-6-yl)cyclopropanecarboxamide] | < 20 nM |
| CCc1cc(NS(=O)(=O)CC2(CC#N)CC2)ccc1-c1cc(NC(=O)C2CC2)nc2[nH]ccc12 [Example 110, N-(4-(4-(((1-(cyanomethyl)cyclopropyl)methyl)sulfonamido)-2-ethylphenyl)-1H-pyrrolo[2,3-b]pyridin-6-yl)cyclopropanecarboxamide] | < 20 nM |
| CCc1cc(NS(=O)(=O)CCCC#N)ccc1-c1cc(NC(=O)C2CC2)nc2[nH]ccc12 [Example 111, N-(4-(4-((3-cyanopropyl)sulfonamido)-2-ethylphenyl)-1H-pyrrolo[2,3-b]pyridin-6-yl)cyclopropanecarboxamide] | < 20 nM |
| CCc1cc(NS(=O)(=O)C2CCCCC2)ccc1-c1cc(NC(=O)C2CC2)nc2[nH]ccc12 [Example 112, N-(4-(4-(cyclohexanesulfonamido)-2-ethylphenyl)-1H-pyrrolo[2,3-b]pyridin-6-yl)cyclopropanecarboxamide] | 20 to 200 nM |
| CCc1cc(NS(=O)(=O)C2CCC2)ccc1-c1cc(NC(=O)C2CC2)nc2[nH]ccc12 [Example 114, N-(4-(4-(cyclobutanesulfonamido)-2-ethylphenyl)-1H-pyrrolo[2,3-b]pyridin-6-yl)cyclopropanecarboxamide] | < 20 nM |
